Where a SMILES comes first, the peptide text is derived from it. [ ]: non-standard residue; d: D form. The star is where a group is joined. ξ: configuration not given here. ξGly(4-Pip(1-amidino)) = N=C(N)N1CCC(C(N)C(=O)O)CC1; ξGly(piperidin-4-yl) = NC(C(=O)O)C1CCNCC1; ξTle = CC(C)(C)C(N)C(=O)O; ξP = O=C(O)C1CCCN1; X1 = CC(CS)C(=O)*
What was measured:
NTSR1 = NTSR1 (Homo sapiens, UniProt P30989); settings: compared to wildtype NTS; cited from earlier work
[1] = compared to wildtype NTS; cited from earlier work
CT26 cells = assay: MTT cell viability assay; type: cell-based, murine; settings: 24 h; for toxicity / viability drop in the absence of radiation: 7-DHC concentration below 12.5 μg/mL
Description: (§1) CT26, a murine colorectal carcinoma cell line, was cultured following the protocol provided by the ATCC. A complete growth medium was prepared by adding 50 mL fetal bovine serum (FBS; Atlanta Biologicals, Cat #S11150) and 5 mL penicillin-streptomycin (Corning Cat #30-002-CI) to 450 mL of RPMI 1640 medium (Corning, Cat #10-104-CV). The cells were sub-cultured every three days and stored in a Thermo Scientific Heracell 150i incubator at 37° C. A day before the experiment, the cells were washed with PBS and collected by trypsinization (37° C., 2 min) followed by neutralization with cell culture medium and centrifugation (1200 rpm, 5 min). The supernatant was removed, and cells were dispersed in new cell culture medium. The cell density was counted using a hemocytometer (Hausser Scientific, Cat #3200) to seed the desired number of cells on the experimental plate(s).
(§2) The cell viability was studied with CT26 cells using the standard MTT assays. Briefly, CT26 cells (10,000 cells per well) were seeded on clear 96-well plates (Corning Costar, Cat #3599). […] 20 μL of 10 mg/mL 3-(4,5-Dimethylthiazolyl-2)-2,5-diphenyltetrazolium bromide (MTT) solution was added into each well. After 4 h incubation at 37° C. and 5% CO2, the solution was discarded from each well, and 100 μL of DMSO was added to each well resulting in purple suspensions. The absorbance at 570 nm was measured using a BioTek Synergy MX multi-mode microplate reader.

MTT cell viability assay = type: cell-based, murine; settings: mouse, CT26 cells, no radiation, read-out: IC50 (cytotoxicity)
Description: as §1, §2

[2] = LC/MS analysis of autooxidation and lipid peroxidation; settings: 320 kV, 5 Gy
Description: Samples were generated by mixing solutions of 10 mg/mL 7-DHC, or 5 mg/mL DHCEO in 5 mL solvent containing 4 mL CH3CN+1 mL Mil-Q-H2O (or 1 mL H2O2). Samples were treated with either PBS or 5 Gy IR followed by incubation for 24 h. The lipid sample was prepared by using 16:0-18:2 PC mixed with 7-DHC at a 3:1 mole ratio in 2:1 v/v of CHCl3:MeOH solution. The solvent was then rotor evaporated and the mixture was rehydrated in 1 mL Mil-Q-H2O. Samples were subjected to LC/MS analysis. Liquid chromatography was performed on an Applied Biosystems 140 B solvent delivery system using water with 0.1% formic acid as solvent A and acetonitrile as solvent B. The linear solvent gradient was from 70% B to 95% B over 20 minutes at a flow rate of 50 μl/min. A Thermo Hypersil-Keystone 1×150 mm Biobasic-4 column with 5 μm particle size and 300 A pore size was used. The effluent was directed into a Bruker Daltonics Esquire 3000 plus ion trap mass spectrometer equipped with an atmospheric pressure chemical ionization (electrospray ionization for the lipid sample) source. The instrument was scanned in enhanced mode from 340-500 m/z with the capillary at 4 KV. The dry as temperature was held at 300 degrees C. at a flow rate of 41/min nitrogen. The nebulizer was set to 15 PSI of nitrogen. The vaporizer temperature was held at 380 degrees C.

[3] = cited from earlier work
serum calcium level = type: in vivo, balb/c mice; settings: 200 μg/kg injected, healthy mice; tolerated level for mice 8.0-11.5 mg/dl
Description: Blood samples were collected at 0, 2, 6, and 24 h for analysis.

Sequence of NTSR1 (P30989 whole entry): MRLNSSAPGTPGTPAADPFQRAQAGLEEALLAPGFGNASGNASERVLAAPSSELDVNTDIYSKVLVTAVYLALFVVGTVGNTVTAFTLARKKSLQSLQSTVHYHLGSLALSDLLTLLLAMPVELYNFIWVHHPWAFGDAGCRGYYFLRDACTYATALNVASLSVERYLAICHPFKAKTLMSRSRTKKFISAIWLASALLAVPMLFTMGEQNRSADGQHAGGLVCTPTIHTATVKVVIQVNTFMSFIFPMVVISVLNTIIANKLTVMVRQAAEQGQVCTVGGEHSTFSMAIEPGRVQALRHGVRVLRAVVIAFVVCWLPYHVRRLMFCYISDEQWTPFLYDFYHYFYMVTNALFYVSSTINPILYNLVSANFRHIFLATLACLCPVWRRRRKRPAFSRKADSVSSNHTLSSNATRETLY

CC(C)C[C@H](NC(=O)C(NC(=O)[C@H](Cc1ccc(O)cc1)NC(=O)C1CCCN1C(=O)[C@H](CCCNC(=N)N)NC(=O)C(NC(=O)C1CCCN1C(=O)C(NC(=O)C(C)CS)C1CCNCC1)C1CCN(C(=N)N)CC1)C(C)(C)C)C(=O)O (stereo partly drawn) [NTSmut] (X1-[ξGly(piperidin-4-yl)][ξP][ξGly(4-Pip(1-amidino))]R[ξP]Y[ξTle]L-OH)
avidity to NTSR1 (NTSR1): nanomolar | biological stability [1]: much greater biological stability

NCCC(=O)N[C@@H](Cc1cnc[nH]1)C(=O)O [carnosine, reference compound]
effect of co-incubation on toxicity induced by 7-DHC@PLGA NPs+IR (CT26 cells; MTT, IR 5 Gy): mitigated toxicity

CC(C)CCC[C@@H](C)[C@H]1CC[C@H]2C3=CC=C4C[C@@H](O)CC[C@]4(C)[C@H]3CC[C@]12C [7-DHC, 7-dehydrocholesterol]
IC50 at 24 h (MTT cell viability assay): 71.4 µg/mL | toxicity / viability drop in the absence of radiation (CT26 cells): Neither 7-DHC nor 7-DHC@PLGA NPs caused significant viability drop | toxicity / viability drop in the absence of radiation (CT26 cells; listed as free 7-DHC): minimal toxicity | conversion after radiation (LC/MS) [2]: converted to oxysterols | solubility in water [3]: poorly soluble in water

C=C1/C(=C\C=C2/CCC[C@]3(C)[C@@H]([C@H](C)CCCC(C)(C)O)CC[C@@H]23)C[C@@H](O)C[C@@H]1O [calcitriol]
serum calcium (serum calcium level): 17.5 mg/dL
